From article PMC4504471, “Cilostazol Induces PGI2 Production via Activation of the Downstream Epac-1/Rap1 Signaling Cascade to Increase Intracellular Calcium by PLCε and to Activate p44/42 MAPK in Human Aortic Endothelial Cells” (PLoS ONE, 2015)

Tests used:
[1] = biological target: T1, PDE3B (Homo sapiens, UniProt Q13370); test: SPR (Biacore S51), competition with Epac-1 peptides on immobilized PDE3B peptide; format: binding; details: read-out: % maximal inhibition
[2] = biological target: T1, PDE3B; test: SPR (Biacore S51), direct binding and competition with Epac-1 peptides; cAMP rise in HAECs lost on PDE3B siRNA; details: read-out: % maximal inhibition

T1 sequence (Q13370 1-25): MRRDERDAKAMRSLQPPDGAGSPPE
T1 sequence (O95398 whole entry partner): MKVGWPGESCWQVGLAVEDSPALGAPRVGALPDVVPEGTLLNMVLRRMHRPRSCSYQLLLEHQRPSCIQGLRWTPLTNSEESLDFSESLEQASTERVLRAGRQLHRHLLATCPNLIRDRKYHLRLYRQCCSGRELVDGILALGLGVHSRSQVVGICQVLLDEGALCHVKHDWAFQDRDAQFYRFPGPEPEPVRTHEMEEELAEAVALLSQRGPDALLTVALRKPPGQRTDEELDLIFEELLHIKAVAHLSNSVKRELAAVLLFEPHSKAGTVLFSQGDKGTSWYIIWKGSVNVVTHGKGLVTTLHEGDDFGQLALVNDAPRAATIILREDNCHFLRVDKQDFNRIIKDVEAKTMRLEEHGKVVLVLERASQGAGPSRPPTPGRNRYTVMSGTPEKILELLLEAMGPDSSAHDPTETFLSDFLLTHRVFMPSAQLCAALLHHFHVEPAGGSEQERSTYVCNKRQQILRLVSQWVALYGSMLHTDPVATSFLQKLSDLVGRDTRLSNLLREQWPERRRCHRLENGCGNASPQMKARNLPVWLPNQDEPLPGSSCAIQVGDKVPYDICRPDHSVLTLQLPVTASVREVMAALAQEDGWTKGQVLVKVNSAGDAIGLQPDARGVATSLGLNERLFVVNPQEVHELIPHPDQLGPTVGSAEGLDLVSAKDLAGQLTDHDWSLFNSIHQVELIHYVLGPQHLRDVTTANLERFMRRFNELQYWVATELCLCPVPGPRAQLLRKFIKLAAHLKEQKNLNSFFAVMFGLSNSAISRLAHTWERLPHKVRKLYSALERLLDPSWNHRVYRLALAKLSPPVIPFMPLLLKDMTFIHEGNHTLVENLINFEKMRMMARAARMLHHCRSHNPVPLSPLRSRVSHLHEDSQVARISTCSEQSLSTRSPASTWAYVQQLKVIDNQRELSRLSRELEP

## CN(C(=O)CCCOc1ccc2[nH]c(=O)ccc2c1)C1CCCCC1 [cilostamide]
[1]
  Emax: 63%

## O=C1CCc2cc(OCCCCc3nnnn3C3CCCCC3)ccc2N1 [cilostazol, 6-[4-(1-cyclohexyl-1H-tetrazol-5-yl)butyloxy]-3,4-dihydroquinolin-2-(1H)-one]
[2]
  Emax: 70%

## Cc1[nH]c(=O)c(C#N)cc1-c1ccncc1 [milrinone]
[1]
  Emax: 60%
